Test results as given in the NIST ThermoML archive (doi:10.1021/je060271a).
Numbers after ± are expanded uncertainties.

Conditions: 323.14 K, Liquid, Vibrating tube method

CCCCCCC(=O)OCC(COC(=O)CCCCCC)(COC(=O)CCCCCC)COC(=O)CCCCCC [pentaerythritol tetraheptanoate]
Conditions | mass density [kg/m3]
8083.9 kPa | 961.1 ± 1.2
8112.2 kPa | 961 ± 1.2
8146.4 kPa | 961.1 ± 1.2
8174.7 kPa | 961.1 ± 1.2
8204 kPa | 961.1 ± 1.2
8239.5 kPa | 961.1 ± 1.2
8270.3 kPa | 961.2 ± 1.2
8300.6 kPa | 961.1 ± 1.2
8335.1 kPa | 961.2 ± 1.2
8358.1 kPa | 961.3 ± 1.2
8377.9 kPa | 961.3 ± 1.2
8401.4 kPa | 961.2 ± 1.2
8421.2 kPa | 961.3 ± 1.2
8441.4 kPa | 961.4 ± 1.2
8465.3 kPa | 961.4 ± 1.2
8485.9 kPa | 961.3 ± 1.2
8506.7 kPa | 961.3 ± 1.2
8527.9 kPa | 961.3 ± 1.2
8548.6 kPa | 961.4 ± 1.2
8573.6 kPa | 961.4 ± 1.2
8594.5 kPa | 961.5 ± 1.2
8619.3 kPa | 961.5 ± 1.2
8640.2 kPa | 961.3 ± 1.2
8661.6 kPa | 961.4 ± 1.2
8682.6 kPa | 961.4 ± 1.2
9244.8 kPa | 961.9 ± 1.2
9604.8 kPa | 962.1 ± 1.2
9745.2 kPa | 962.3 ± 1.2
9761.3 kPa | 962.2 ± 1.2
9775 kPa | 962.3 ± 1.2
9934.6 kPa | 962.3 ± 1.2
9965.6 kPa | 962.4 ± 1.2
9979.5 kPa | 962.3 ± 1.2
9996.2 kPa | 962.3 ± 1.2
10025 kPa | 962.4 ± 1.2
10042 kPa | 962.3 ± 1.2
10056 kPa | 962.4 ± 1.2
10453 kPa | 962.6 ± 1.2
10957 kPa | 962.9 ± 1.2
10974 kPa | 962.9 ± 1.2
10995 kPa | 963 ± 1.2
11012 kPa | 962.9 ± 1.2
11032 kPa | 963 ± 1.2
11050 kPa | 963.1 ± 1.2
11067 kPa | 963 ± 1.2
11088 kPa | 963 ± 1.2
11123 kPa | 963.1 ± 1.2
11141 kPa | 963.1 ± 1.2
11162 kPa | 963.1 ± 1.2
11180 kPa | 963.2 ± 1.2
11202 kPa | 963.2 ± 1.2
11220 kPa | 963.2 ± 1.2
11238 kPa | 963.3 ± 1.2
11259 kPa | 963.3 ± 1.2
11278 kPa | 963.2 ± 1.2
11296 kPa | 963.2 ± 1.2
11317 kPa | 963.2 ± 1.2
11335 kPa | 963.2 ± 1.2
11354 kPa | 963.2 ± 1.2
11679 kPa | 963.5 ± 1.2
11702 kPa | 963.5 ± 1.2
11722 kPa | 963.5 ± 1.2
11742 kPa | 963.4 ± 1.2
11765 kPa | 963.6 ± 1.2
11786 kPa | 963.6 ± 1.2
11806 kPa | 963.5 ± 1.2
11826 kPa | 963.6 ± 1.2
11850 kPa | 963.7 ± 1.2
11871 kPa | 963.6 ± 1.2
11892 kPa | 963.5 ± 1.2
11914 kPa | 963.6 ± 1.2
11934 kPa | 963.6 ± 1.2
11958 kPa | 963.7 ± 1.2
12004 kPa | 963.6 ± 1.2
12461 kPa | 964 ± 1.2
12560 kPa | 964 ± 1.2
12657 kPa | 963.9 ± 1.2
12708 kPa | 964 ± 1.2
12732 kPa | 964 ± 1.2
12784 kPa | 964.2 ± 1.2
12808 kPa | 964.1 ± 1.2
12962 kPa | 964.3 ± 1.2
12986 kPa | 964.3 ± 1.2
13011 kPa | 964.3 ± 1.2
13041 kPa | 964.2 ± 1.2
13066 kPa | 964.4 ± 1.2
13090 kPa | 964.3 ± 1.2
13120 kPa | 964.4 ± 1.2
13146 kPa | 964.4 ± 1.2
13171 kPa | 964.4 ± 1.2
13202 kPa | 964.3 ± 1.2
13252 kPa | 964.5 ± 1.2
13283 kPa | 964.5 ± 1.2
13308 kPa | 964.4 ± 1.2
13334 kPa | 964.6 ± 1.2
13365 kPa | 964.6 ± 1.2
13391 kPa | 964.5 ± 1.2
13418 kPa | 964.6 ± 1.2
13449 kPa | 964.6 ± 1.2
13475 kPa | 964.7 ± 1.2
13502 kPa | 964.6 ± 1.2
13533 kPa | 964.6 ± 1.2
13560 kPa | 964.7 ± 1.2
13587 kPa | 964.5 ± 1.2
13619 kPa | 964.7 ± 1.2
13645 kPa | 964.7 ± 1.2
13678 kPa | 964.8 ± 1.2
13705 kPa | 964.6 ± 1.2
13732 kPa | 964.8 ± 1.2
13760 kPa | 964.7 ± 1.2
13793 kPa | 964.8 ± 1.2
13822 kPa | 964.8 ± 1.2
13850 kPa | 964.7 ± 1.2
13884 kPa | 964.8 ± 1.2
13912 kPa | 964.9 ± 1.2
13940 kPa | 965 ± 1.2
13969 kPa | 964.9 ± 1.2
14002 kPa | 964.9 ± 1.2
14031 kPa | 964.9 ± 1.2
14065 kPa | 964.9 ± 1.2
14094 kPa | 964.9 ± 1.2
14124 kPa | 965 ± 1.2
14159 kPa | 964.9 ± 1.2
14217 kPa | 964.9 ± 1.2
14254 kPa | 965 ± 1.2
14374 kPa | 965 ± 1.2
14411 kPa | 965.1 ± 1.2
14441 kPa | 965.3 ± 1.2
14478 kPa | 965.2 ± 1.2
14509 kPa | 965.3 ± 1.2
14540 kPa | 965.3 ± 1.2
14571 kPa | 965.2 ± 1.2
14777 kPa | 965.3 ± 1.2
14810 kPa | 965.4 ± 1.2
14849 kPa | 965.5 ± 1.2
14883 kPa | 965.4 ± 1.2
15305 kPa | 965.7 ± 1.2
15364 kPa | 965.8 ± 1.2
15393 kPa | 965.8 ± 1.2
15404 kPa | 965.8 ± 1.2
15412 kPa | 965.8 ± 1.2
15421 kPa | 965.8 ± 1.2
15430 kPa | 965.8 ± 1.2
15440 kPa | 965.9 ± 1.2
15449 kPa | 965.8 ± 1.2
15460 kPa | 965.9 ± 1.2
15468 kPa | 966 ± 1.2
15477 kPa | 965.9 ± 1.2
15488 kPa | 965.8 ± 1.2
15497 kPa | 965.8 ± 1.2
15506 kPa | 965.9 ± 1.2
15514 kPa | 965.8 ± 1.2
15525 kPa | 965.8 ± 1.2
15534 kPa | 966 ± 1.2
15543 kPa | 965.9 ± 1.2
15554 kPa | 965.9 ± 1.2
15563 kPa | 965.9 ± 1.2
15573 kPa | 965.9 ± 1.2
15582 kPa | 966 ± 1.2
15591 kPa | 965.9 ± 1.2
15600 kPa | 966 ± 1.2
15611 kPa | 966 ± 1.2
15620 kPa | 965.9 ± 1.2
15658 kPa | 966.1 ± 1.2
15667 kPa | 966 ± 1.2
15678 kPa | 966 ± 1.2
15687 kPa | 966 ± 1.2
15698 kPa | 966.1 ± 1.2
15716 kPa | 966.2 ± 1.2
15756 kPa | 966.1 ± 1.2
15853 kPa | 966.1 ± 1.2
15873 kPa | 966.2 ± 1.2
15882 kPa | 966.1 ± 1.2
15893 kPa | 966.1 ± 1.2
15912 kPa | 966.1 ± 1.2
15923 kPa | 966 ± 1.2
15933 kPa | 966.2 ± 1.2
15942 kPa | 966.2 ± 1.2
16746 kPa | 966.7 ± 1.2
16758 kPa | 966.5 ± 1.2
16768 kPa | 966.7 ± 1.2
16779 kPa | 966.7 ± 1.2
16792 kPa | 966.6 ± 1.2
16801 kPa | 966.7 ± 1.2
16813 kPa | 966.6 ± 1.2
16924 kPa | 966.8 ± 1.2
16935 kPa | 966.8 ± 1.2
16947 kPa | 966.8 ± 1.2
16960 kPa | 966.9 ± 1.2
16970 kPa | 966.9 ± 1.2
16981 kPa | 966.8 ± 1.2
16993 kPa | 966.8 ± 1.2
17004 kPa | 966.9 ± 1.2
17223 kPa | 966.9 ± 1.2
17236 kPa | 967 ± 1.2
17329 kPa | 967.1 ± 1.2
17342 kPa | 967.1 ± 1.2
17353 kPa | 967.1 ± 1.2
17364 kPa | 967.1 ± 1.2
17378 kPa | 967.1 ± 1.2
17401 kPa | 967 ± 1.2
17522 kPa | 967 ± 1.2
17659 kPa | 967.3 ± 1.2
17673 kPa | 967.2 ± 1.2
17685 kPa | 967.2 ± 1.2
17697 kPa | 967.3 ± 1.2
17708 kPa | 967.1 ± 1.2
17722 kPa | 967.2 ± 1.2
17734 kPa | 967.3 ± 1.2
17784 kPa | 967.3 ± 1.2
17798 kPa | 967.3 ± 1.2
17885 kPa | 967.4 ± 1.2
17912 kPa | 967.5 ± 1.2
17924 kPa | 967.3 ± 1.2
17938 kPa | 967.4 ± 1.2
17950 kPa | 967.5 ± 1.2
18001 kPa | 967.4 ± 1.2
18171 kPa | 967.5 ± 1.2
18199 kPa | 967.5 ± 1.2
18211 kPa | 967.6 ± 1.2
18226 kPa | 967.6 ± 1.2
18239 kPa | 967.6 ± 1.2
18252 kPa | 967.6 ± 1.2
